{"source": "patent US20160223522A1", "about": "“ASSAY FOR DETERMINING RELATIVE REDOX CHANGES IN LIVING CELLS AND ASSOCIATED DEVICES, SYSTEMS, AND METHODS” (University of Utah Research Foundation, priority 2013, published 2016)", "key": {"[1]": {"test_system": "BJ fibroblasts", "test": "Secondary test: protection of cells from hydrogen peroxide oxidative stress, viability by Alamar Blue", "format": "cell-based, human", "settings": "4 μM hit for 24 hours; 980 μM hydrogen peroxide for four hours; viability 24 hours following treatment (FIG. 11c)", "procedure": "(§1) For comparison with Alamar Blue™ (Invitrogen, Carlsbad, Calif.), cells in a 96-well plate were washed with PBS followed by four hours of incubation with Alamar Blue diluted 1:10 in normal media according to the manufacturer's instructions. Alamar Blue fluorescence was assayed in a plate reader using excitation and emission wavelengths 540 nm and 590 nm, respectively.\n(§2) A secondary test was performed to evaluate the ability of each hit to protect cells from oxidative stress. Cells in 96-well plates were incubated with hits dissolved to 4 μM in cell media for 24 hours (three wells per compound). Cells were then washed once with PBS, and treated with hydrogen peroxide dissolved in cell media for four hours. Cells were then washed once with PBS, and cell viability was assayed with Alamar Blue.\n(§3) Control cells were not treated with hydrogen peroxide. Every other category, including DMSO, was treated with 240 μM hydrogen peroxide for four hours prior to viability assessment with Alamar Blue. P-value for 10E4 vs. DMSO is 0.04, p-value for 10E4 vs. control is 0.98, and p-value for DMSO vs. control is 0.02. […] Control cells were not treated with hydrogen peroxide. DMSO pre-treated cells and every other category was treated with 980 μM hydrogen peroxide for four hours prior to the addition of Alamar Blue. […]"}, "[2]": {"test_system": "H9C2 cells", "test": "Secondary test: protection of cells from hydrogen peroxide oxidative stress, viability by Alamar Blue", "format": "cell-based, rat", "settings": "4 μM hit for 24 hours; 24 hours after treatment with 600 μM hydrogen peroxide (FIG. 11b)", "procedure": "as §1, §2, §3"}, "[3]": {"test_system": "BJ fibroblasts", "test": "Reductide plate reader assay in cells (FAM signal after treatment with redox-modifying agents)", "format": "cell-based, human", "settings": "for reductide FAM signal, % of control at 50 µM: Homo sapiens, Fibroblast, 50 μM compound for 24 hours, then reductide 1.5 μM for four hours, in comparison with vehicle treated cells, read-out: % change from control (reductide FAM signal)", "procedure": "BJ fibroblasts were trypsinized and re-plated in a 96-well plate (5,000 cells/well) in normal growth medium and allowed to attach overnight. Media was replaced with normal media supplemented with the chemical redox-modifying agent indicated in the “Results” section for the indicated duration of treatment. Cells were subsequently washed one time with PBS and media was replaced with normal media supplemented with reductide 1 μM.\nBJ fibroblasts in 96-well plates were pretreated with various redox-modifying agents followed by washing, incubation with reductide, and assessment of fluorescence by plate reader. […] However, following twenty-four hours of treatment with H2O2, FAM signal was increased for BJ fibroblasts treated with 200-400 μM H2O2 (FIG. 4D) but decreased with higher doses.\nAlthough glutathione is the most abundant intracellular redox buffering system, the protein thioredoxin also acts as an important redox buffer. In order to test whether uptake and reduction of reductide is affected by glutathione status, thioredoxin status, or both, BJ fibroblasts were treated with the specific inhibitor of thioredoxin reductase, aurothioglucose, the inhibitor of glutathione biosynthesis, 1-buthionine sulfoximine (BSO), or both for 24 hours followed by washing, incubation with reductide for four hours, and plate reader assay. […] Thus, uptake and reduction of reductide depends on both glutathione and thioredoxin systems.\nIn another test to determine whether uptake and reduction of reductide is affected by glutathione status, BJ fibroblasts were treated with 1-buthionine sulfoximine (BSO), an inhibitor of glutathione biosynthesis, or diamide, a thiol oxidizing agent that decreases the cellular GSH to GSSG ratio. […] The following day, cells were treated with the glutathione biosynthesis inhibitor 1-buthionine sulfoximine (BSO) (FIG. 6a) or the thiol oxidizing agent diamide (FIG. 6b) in normal media also containing reductide 1 μM.\nThe following day, cells were incubated in normal cell media supplemented with 50 μM of a redox-modifying compound from the redox library distributed from Enzo Life Sciences. Each redox compound was used to treat three wells for 24 hours. Afterward, cells were washed with PBS followed by incubation in reductide 1 μM dissolved in normal media for four hours. FAM signal from reduction of reductide's disulfide bond was assayed in a plate reader. Most compounds in the library are classified as antioxidants. […] It should be noted that the screening conditions (50 μM concentration, 24 hour drug incubation) were not optimized for each drug individually. That many antioxidants can act as pro-oxidants if their concentration is sufficiently high is well known. […] When retested at new concentrations, different results were obtained (FIG. 10a-c), showing an increase in signal expected for reduction.\nCells were subsequently washed with PBS and incubated with reductide 1.5 μM dissolved in cell media for four hours. FAM signal was assayed in a plate reader. The redox modifying compounds were obtained as an 84 compound library from Enzo Life Sciences. Percentage change in reductide signal in comparison with vehicle treated cells are shown for a subset of the redox modifying compounds."}, "[4]": {"test_system": "IMR90 fibroblasts", "test": "Flow cytometry of cells incubated with reductide (TAMRA, FAM, DAPI, side-scatter)", "format": "cell-based, human", "quoted_text": "IMR90 fibroblasts were seeded onto six 10 cm dishes at a density of 1.8×10^6 cells and allowed to attach overnight. Three dishes were treated with H2O2 600 μM and another three with NAC 4 mM, each in normal media, for one hour. Cells were washed with PBS followed by incubation with reductide 1 μM in normal media for 3, 15, or 30 minutes. Cells were then washed again with PBS followed by trypsinization and collection in normal media without phenol red. Cell concentration was 10^6 per ml. DAPI was added at 1:500 dilution and cells were analyzed by flow cytometry for TAMRA and FAM fluorescence.\nIMR90 cells were seeded into 10 cm dishes at a density of 1.8×106 and allowed to attach overnight. The following day, cells were pretreated with NAC 4 mM or H2O2 600 μM for 60 minutes prior to peptide incubation."}, "[5]": {"test_system": "IMR90 fibroblasts", "quoted_text": "For comparison with monochlorobimane, IMR90 fibroblasts were seeded into a 96 well plate at a density of 50,000 cells per well and attached overnight. Cells were incubated for 60 minutes in media containing NAC or H2O2 at the indicated concentrations. Cells were washed twice in 200 μl of PBS. Monochlorobimane was used to assay reduced GSH content in half the wells using the Glutathione Assay Kit available from Sigma (CS 1020, St. Louis, Mo., USA), following the manufacturer's instructions for use in live cells in a plate reader. At the same time, reductide was dissolved in the same assay buffer used for monochlorobimane treatment and added to half of the wells at a concentration of 1 μM. Fluorimetric readings were performed in a Synergy HT plate reader using excitation and emission wavelengths of 485 nm/528 nm for reductide and 390 nm/478 nm for monochlorobimane. Each cell condition was triplicated, and each experiment was repeated two times.\nReductide (FIG. 8a) is compared with monochlorobimane (FIG. 8b), which is non-fluorescent unless conjugated to low molecular weight thiols, in IMR90 fibroblasts following pretreatment with NAC or H2O2. Cells were seeded into a 96-well plate at a density of 50,000 cells per well and allowed to attach overnight. […]"}, "[6]": {"settings": "within 30 minutes of incubation; cited from earlier work"}, "[7]": {"settings": "treated for 24 hours, washing, reductide for four hours (FIG. 5)"}, "[8]": {"settings": "treated in normal media also containing reductide 1 μM (FIGS. 6a-b)"}, "[9]": {"settings": "pretreatment at varied concentration, washing, incubation with reductide (FIG. 4A, 4B)"}, "[10]": {"settings": "50 μM for 24 hours, then reductide 1 μM for four hours"}, "[11]": {"settings": "retested at lower concentrations (FIG. 10a-c)"}}, "note": "Like-named read-outs stand apart in the source and are kept apart here. Ends that are not written are not given here.", "data": [{"molecule": "C=C(C)C(=O)C(=CC(=O)O)OC", "note": "[3E7, penicillic acid]", "values": [{"measurement": "viability vs. control (not treated with hydrogen peroxide)", "setting": "[1]", "value": "significantly higher than control"}]}, {"molecule": "CN(C)C(=S)SSC(=S)N(C)C", "note": "[9B11, thiram]", "values": [{"measurement": "viability signal vs. DMSO", "setting": "[2]", "value": "significantly higher than DMSO"}]}, {"molecule": "CC(=O)O[C@@H]1C[C@@]2(C)[C@H](c3ccoc3)C[C@H]3O[C@]32[C@]2(C)C(=O)C(O)=C3C(C)(C)C(=O)C=C[C@]3(C)[C@@H]12", "note": "[20B8, anthothecol]", "values": [{"measurement": "viability signal vs. DMSO", "setting": "[2]", "value": "significantly higher than DMSO"}]}, {"molecule": "CCCCS(=N)(=O)CCC(N)C(=O)O", "note": "(centres unmarked) [BSO, 1-buthionine sulfoximine]", "values": [{"measurement": "reductide FAM signal", "setting": "[3]; [7]", "value": "significant increase in signal"}, {"measurement": "reductide FAM signal", "setting": "[3]; [8]", "value": "significant decrease in reductide FAM signal"}]}, {"molecule": "O=[N+]([O-])c1ccc(Cl)c([N+](=O)[O-])c1", "note": "[CDNB, 1-chloro-2,4-dinitrobenzene]", "values": [{"measurement": "FAM signal after pretreatment", "setting": "[3]; [9]", "value": "decreased in proportion to the concentration"}]}, {"molecule": "O=c1c2ccccc2[se]n1-c1ccccc1", "note": "[Ebselen]", "values": [{"measurement": "reductide FAM signal, % of control at 50 µM", "setting": "[3]", "value": 77.2, "unit": "%"}]}, {"molecule": "CCOc1ccc2c(c1)C(C)=CC(C)(C)N2", "note": "[Ethoxyquin]", "values": [{"measurement": "reductide FAM signal, % of control at 50 µM", "setting": "[3]", "value": 155, "unit": "%"}]}, {"molecule": "Cc1cc(Cc2cc(C)cc(C(C)(C)C)c2O)c(O)c(C(C)(C)C)c1", "note": "[GERI-BP002A]", "values": [{"measurement": "FAM signal relative to vehicle treated cells", "setting": "[3]; [10]", "value": "significant decrease in FAM signal"}, {"measurement": "FAM signal relative to vehicle treated cells", "setting": "[3]; [11]", "value": "increase in FAM signal consistent with reduction"}]}, {"molecule": "OO", "note": "[H2O2, hydrogen peroxide]", "values": [{"measurement": "nonviable cells by side-scatter or DAPI signal", "setting": "[4]; reductide 1 μM for 3, 15 or 30 minutes vs. controls, H2O2 600 μM pretreatment for 60 minutes", "value": "No increase in nonviable cells"}, {"measurement": "FAM signal following incubation with reductide", "setting": "[5]; pretreatment 600 μM for 60 minutes (FIG. 8a)", "value": "significant decrease in FAM signal"}, {"measurement": "FAM signal following incubation with reductide", "setting": "[5]; pretreatment with low doses for 60 minutes (FIG. 8a)", "value": "mild increases in FAM signal"}, {"measurement": "FAM signal after pretreatment", "setting": "[3]; four hours of incubation with H2O2 (FIG. 4C)", "value": "decreased in proportion to H2O2 concentration"}, {"measurement": "FAM signal after pretreatment", "setting": "[3]; twenty-four hours of treatment, 200-400 μM H2O2 (FIG. 4D)", "value": "increased"}, {"measurement": "FAM signal after pretreatment", "setting": "[3]; twenty-four hours of treatment, higher doses than 200-400 μM (FIG. 4D)", "value": "decreased"}]}, {"molecule": "COC1=C(OC)C(=O)C(CCCCCCCCCCO)=C(C)C1=O", "note": "[Idebenone]", "values": [{"measurement": "reductide FAM signal, % of control at 50 µM", "setting": "[3]", "value": 121, "unit": "%"}]}, {"molecule": "CCN1C(=O)C=CC1=O", "note": "[N-Ethylmaleimide]", "values": [{"measurement": "reductide FAM signal, % of control at 50 µM", "setting": "[3]", "value": -71.7, "unit": "%"}]}, {"molecule": "CC(=O)N[C@@H](CS)C(=O)O", "note": "[NAC, N-acetylcysteine]", "values": [{"measurement": "TAMRA signal (reductide uptake)", "setting": "[4]; pretreatment NAC 4 mM for 60 minutes, then reductide 1 μM", "value": "strongest"}, {"measurement": "FAM signal after pretreatment", "setting": "[3]; [9]", "value": "increased in proportion to the concentration"}]}, {"molecule": "CCCCCCCCCCCCCCCC(=O)OC/C=C(C)/C=C/C=C(C)/C=C/C1=C(C)CCCC1(C)C", "note": "[Retinyl palmitate]", "values": [{"measurement": "reductide FAM signal, % of control at 50 µM", "setting": "[3]", "value": 124, "unit": "%"}]}, {"molecule": "CC1=C(C)C(=O)C(C(CCCCCC(=O)O)c2ccccc2)=C(C)C1=O", "note": "(centres unmarked) [Seratrodast]", "values": [{"measurement": "reductide FAM signal, % of control at 50 µM", "setting": "[3]", "value": 135, "unit": "%"}]}, {"molecule": "OC[C@H]1O[C@H]([S-])[C@H](O)[C@@H](O)[C@@H]1O.[Au+]", "note": "[aurothioglucose]", "values": [{"measurement": "reductide FAM signal", "setting": "[3]; [7]", "value": "small increase in reductide FAM signal that was not statistically significant"}]}, {"molecule": "COc1ccccc1OCCNCC(O)COc1cccc2[nH]c3ccccc3c12", "note": "(centres unmarked) [carvedilol]", "values": [{"measurement": "FAM signal relative to vehicle treated cells", "setting": "[3]; [10]", "value": "significant decrease in FAM signal"}, {"measurement": "FAM signal relative to vehicle treated cells", "setting": "[3]; [11]", "value": "increase in FAM signal consistent with reduction"}]}, {"molecule": "CN(C)C(=O)/N=N/C(=O)N(C)C", "note": "[diamide]", "values": [{"measurement": "reductide FAM signal", "setting": "[3]; [8]", "value": "significant decrease in reductide FAM signal"}]}, {"molecule": "C[Se]CC[C@H](N)C(=O)O", "note": "[selenomethionine]", "values": [{"measurement": "FAM signal relative to vehicle treated cells", "setting": "[3]; all concentrations tested (FIG. 10a-c)", "value": "significant increase in FAM signal consistent with reduction"}]}, {"molecule": "CC1=C(/C=C/C(C)=C/C=C/C(C)=C/C=C/C=C(C)/C=C/C=C(C)/C=C/C2=C(C)CCCC2(C)C)C(C)(C)CCC1", "note": "[β-carotene]", "values": [{"measurement": "reductide FAM signal, % of control at 50 µM", "setting": "[3]", "value": 111, "unit": "%"}]}, {"molecule": "KLALKLALKALKAALKLA-NH2 [MAP]", "values": [{"measurement": "internalized fraction", "setting": "[6]", "value": 60, "unit": "%"}]}]}
